The results in this text go back to patent publication US6545009B1, “Retinoid-related receptor function regulating agent” (Takeda Chemical Industries, Ltd., priority 1998, dated 2003).

Each structure is given as a SMILES string.

Data set [1] has as its system KKA^y mice. Kind of data set: Hypoglycemic and hypolipidemic (hypotriglyceridemic) activities in mice. Particulars: four days; for Hypoglycemic effect (%) / Hypolipidemic effect (%): 0.01% in powdered diet; for Hypoglycemic effect (%): reduction rate of plasma glucose compared with non-treatment group; for Hypolipidemic effect (%): reduction rate of plasma triglyceride compared with non-treatment group. The class given is in vivo. The method, then: Test compound was mixed in a powdered diet (CE-2, Japan Clea) at the concentration of 0.01%, and freely given to KKA^y mice (9 to 12 weeks old, 5 mice in a group) a model of obese and non-insulin-dependent diabetes mellitus (Type 2 diabetes mellitus), for four days. […] During the experimental period, water was given freely Blood was obtained from orbital venous plexus, and glucose and triglyceride levels in plasma were determined enzymatically using L type Wako Glu2 (Wako Pure Chemical Industries, Ltd.) and L type Wako TG·H (Wako Pure Chemical Industries, Ltd.), respectively.
Test compound was mixed in a powdered diet (CE-2, Japan Clea) at the concentration of 0.01%, and freely given to KKA^y mice (9 to 12 weeks old, 5 mice in a group), a model of obese and.non-insulin-dependent diabetes mellitus (Type 2 diabtes mellitus), for four days. During this period, water was given freely. Blood was obtained from orbital venous plexus, and glucose and triglyceride levels in plasma were determined enzymatically using L type Wako Glu2 (Wako Pure Chemical Industries, Ltd.) and L type Wako TG·H (Wako Pure Chemical Industries, Ltd.), respectively.
The value of each treatment group is represented as reduction rate (%) compared with the non-treatment group, which is shown in [Table 2].

For data set [2], the target named is T1, PPARγ-RXRα heterodimer (Homo sapiens, UniProt P19793+P37231).
T1 construct: expressed in transfected cells; host or cells: CHO-K1
T1 sequence (P37231 1-477 isoform P37231-2): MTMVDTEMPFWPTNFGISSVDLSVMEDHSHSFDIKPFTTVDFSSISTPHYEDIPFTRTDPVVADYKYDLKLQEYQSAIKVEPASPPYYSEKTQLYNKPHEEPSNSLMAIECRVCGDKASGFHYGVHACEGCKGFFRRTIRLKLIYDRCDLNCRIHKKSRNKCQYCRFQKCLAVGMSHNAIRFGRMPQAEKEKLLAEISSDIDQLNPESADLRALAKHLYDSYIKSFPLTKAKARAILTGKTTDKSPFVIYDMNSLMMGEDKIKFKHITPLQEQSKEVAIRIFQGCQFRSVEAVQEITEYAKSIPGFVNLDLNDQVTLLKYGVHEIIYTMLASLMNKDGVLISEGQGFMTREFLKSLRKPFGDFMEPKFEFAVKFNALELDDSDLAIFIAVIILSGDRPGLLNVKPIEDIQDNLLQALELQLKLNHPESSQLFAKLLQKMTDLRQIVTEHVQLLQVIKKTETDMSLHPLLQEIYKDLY
T1 sequence (P19793 1-462): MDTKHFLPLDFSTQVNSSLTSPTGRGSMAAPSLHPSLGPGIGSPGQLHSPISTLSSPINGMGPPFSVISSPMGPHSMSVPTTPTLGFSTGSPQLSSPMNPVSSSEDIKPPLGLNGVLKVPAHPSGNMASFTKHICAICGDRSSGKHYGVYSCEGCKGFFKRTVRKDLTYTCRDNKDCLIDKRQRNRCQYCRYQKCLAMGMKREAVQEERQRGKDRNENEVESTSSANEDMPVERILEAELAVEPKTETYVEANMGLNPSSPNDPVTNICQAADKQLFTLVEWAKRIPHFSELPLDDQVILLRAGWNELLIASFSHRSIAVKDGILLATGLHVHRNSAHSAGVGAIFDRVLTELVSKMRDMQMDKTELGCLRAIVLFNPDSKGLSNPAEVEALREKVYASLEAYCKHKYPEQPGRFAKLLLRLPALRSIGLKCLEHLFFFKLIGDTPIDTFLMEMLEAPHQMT
Kind of data set: PPARγ-RXRα heterodimer ligand activity (luciferase reporter in PPARγ:RXRα:4ERPP/CHO-K1 cells). The data set is classed as cell-based. Particulars: for EC50: luciferase fold induction, 48 hours. The method, then:
PPAR γ:RXR α:4ERPP/CHO-K1 cells obtained in Reference Example 5 were cultured in HAM F12 medium (produced by NISSUI SEIYAKU) containing 10% Fetal bovine serum (produced by Life Technologies, Inc., USA) and then inoculated to a 96-well white plate (produced by Corning Costar Corporation, USA) at the density of 2×10^4 cells/well, and cultured in a CO2 gas incubator at 37° C. overnight.
After washing the 96 well white plate with PBS (Phosphate-buffered saline), 90 μl of HAM F12 medium containing 0.1% fatty acid-free bovine serum albumin (BSA) and 10 μl of test compound were added to each well, and the plate was cultured in a CO2 gas incubator at 37° C. for 48 hours. After removing the medium, 40 μl of PIKKAGENE 7.5 (produced by Wako Pure Chemical Industries, Ltd.) was added to the well. After stirring, the luciferase activity was determined using Lumistar (produced by BMG Labtechnologies GmbH, Germany).
A fold induction was calculated based on the luciferase activity of each test compound by estimating the luciferase activity in the non-treatment group as 1. The values of the test compound concentration and the fold induction were used to calculate the EC50 values, the effective concentration of a test compound for 50% of the maximum fold induction, by using PRISM 2.01 (produced by GraphPad Software Inc. USA).
PPARγ:RXRα:4ERPP/CHO-K1 cells obtained in Reference. Example 5 were cultured in HAM F12 medium (produced by NISSUI SEIYAKU) containing 10% Fetal bovine serum (produced by Life Technologies, Inc., USA) and then inoculated to a 96-well white plate (produced by Corning Costar Corporation, USA) at the density of 2×10^4 cells/well, and cultured in a CO2 gas incubator at 37° C. overnight.
After washing the 96 well white plate with PBS (Phosphate-buffered saline), 90 μl of HAM F12 medium containing 0.1% fatty acid-free bovine serum albumin (BSA) and 10 μl of test compound were added to each well, and the plate was cultured in a CO2 gas incubator at 37° C. for 48 hours. After removing the medium, 40 μl of PIKKAGENE 7.5 produced by Wako Pure Chemical Industries, Ltd.) was added to the well. After stirring, the luciferase activity was determined using Lumistar (produced by BMG Labtechnologies Gmbh, Germany).
A fold induction was calculated based on the luciferase activity of each test compound by estimating the luciferase activity in the non-treatment group as 1. The values of the test compound concentration and the fold induction were used to calculate the EC50 values, the effective concentration of a test compound for 50% of the maximum induction, by using PRISM 2.01 (produced by GraphPad Software Inc. USA). The results are shown in [Table 1].

Take `O=C(O)c1ccc(-c2cnc(-c3ccc(C(F)(F)F)cc3)o2)cc1` [Example 110, 4-[2-(4-trifluoromethylphenyl)-5-oxazolyl]benzoic acid]: the melting point was in the range of 253 to 254 °C. Moreover, in data set [1], the “Hypoglycemic effect (%)” value is 73% and the “Hypolipidemic effect (%)” value was found to be 87%. The molecule further showed an EC50 in data set [2] of 0.048 µM.

On to `O=C(O)c1ccc(-c2nc(-c3ccc(C(F)(F)F)cc3)co2)cc1` [Example 9, 4-[4-(4-trifluoromethylphenyl)-2-oxazolyl]benzoic acid], for which the melting point was in the range of 258 to 259 °C. Further, in data set [1], the “Hypoglycemic effect (%)” value was 51% and the “Hypolipidemic effect (%)” value is on record as 67%. The same molecule displayed an EC50 in data set [2] of 0.023 µM.

Turning to `O=C(O)c1ccc(-c2nc(-c3ccc(C(F)(F)F)cc3)cs2)cc1` [Example 55, 4-[4-(4-trifluoromethylphenyl)-2-thiazolyl]benzoic acid], the melting point lay within 164 to 165 °C. Also, in data set [1], the “Hypoglycemic effect (%)” value is 70% and the “Hypolipidemic effect (%)” value was determined as 86%. The molecule further registered an EC50 in data set [2] of 0.068 µM.

On to `O=C(O)c1ccc(-c2nc(-c3ccc(Cl)cc3)cs2)cc1` [Example 52, 4-[4-(4-chlorophenyl)-2-thiazolyl]benzoic acid], for which the hypoglycemic activity result in data set [1] (0.01% in diet, dose ranging from 0.1 to 50 mg/kg/day, plasma glucose) was “potent”. In addition, in data set [1] (0.01% in diet, dose ranging from 0.1 to 50 mg/kg/day, plasma triglyceride), the “hypolipidemic (hypotriglyceridemic) activity” value is on record as “potent”. Further, the “PPARγ-RXRα heterodimer ligand activity” value in data set [2] (at a concentration ranging from 10^−5 M to 10^−9 M) was “potent”.

The molecule `O=C(O)c1ccc(-c2nc(-c3ccc(OC(F)(F)F)cc3)cs2)cc1` [Example 64, 4-[4-(4-trifluoromethoxylphenyl)-2-thiazolyl]benzoic acid] came in with a melting point of 245 to 246 °C. Also, in data set [1], the “Hypoglycemic effect (%)” value came out at 68% and the “Hypolipidemic effect (%)” value worked out at 88%. In data set [2], this molecule came in with a 50% effective concentration (EC50) of 0.31 µM.

Regarding `O=C(O)c1ccc(-c2cnc(-c3ccc(C(F)(F)F)cc3)s2)cc1` [Example 113, 4-[2-(4-trifluoromethylphenyl)-5-thiazolyl]benzoic acid], in data set [1], the “Hypoglycemic effect (%)” value worked out at 45% and the “Hypolipidemic effect (%)” value is 53%. The molecule further gave an EC50 in data set [2] of 0.06 µM.

As to `Cc1cc(-c2csc(-c3cccc(C(=O)O)c3)n2)c(C)o1` [Example 72, 3-[4-(2,5-dimethyl-3-furyl)-2-thiazolyl]benzoic acid], the melting point was 174 to 175 °C. Also, the EC50 in data set [2] was 0.0006 µM.
